# Measured values as given in publication PMC11693508, “Pharmacokinetics, bioavailability, and tissue distribution of MRTX1133 in rats using UHPLC-MS/MS” (Frontiers in Pharmacology, 2024).
# Like-named read-outs stand apart in the source and are kept apart here.
# Columns and labels:
# [1] = Excretion in urine and feces of rats after intravenous administration; format: in vivo, Sprague-Dawley rats; conditions: rat, intravenous 5 mg/kg; for excretion through the kidney as prototype drug (urine): mean ± SD, n = 5
# Protocol: (§1) The distribution of MRTX1133 in the tissues was performed using 25 rats with a single intravenous administration of MRTX1133 at 5 mg kg^-1. The blood samples were collected from abdominal aorta at 0.5 h, 1 h, 2 h, 6 h, and 24 h (five rats at each time point), then the organs such as the heart, liver, spleen, lung, kidney, intestine, and pancreas were immediately collected. The organs were washed with cold physiological saline (4°C), they were weighed and homogenized in cold saline solution (1:3, w/v). The homogenized samples were treated according to the method described in the sample preparation section. The excretion of MRTX1133 in the urine was also investigated by placing the rats in metabolic cages after intravenous administration of MRTX1133 at 5 mg kg^-1 (one rat in each cage), the urine and feces were collected at 2 h, 6 h and 24 h after administration (five rats at each time point), and the content of MRTX1133 in urine and feces was detected by the LC-MS method.
# [2] = design: method as in Wang et al. (2022); conditions: CD-1 mice, intraperitoneal 30 mg/kg, ref Wang et al. (2022), cited from earlier work
# KRAS (G12D) = test system: KRAS (G12D); design: method as in Wang et al., 2022; conditions: in vitro in cell culture; ref Wang et al., 2022; cited from earlier work
# [3] = Stability of MRTX1133 in rat plasma and tissue homogenates under different storage conditions; format: physicochemical; conditions: for Post-processing stability Accuracy / Short-term stability Accuracy / −80°C for 14 days Accuracy / Freeze-thaw stability Accuracy: n = 6; for −80°C for 14 days Accuracy: long-term; for Freeze-thaw stability Accuracy: three freeze-thaw cycles −20°C to 25°C
# Protocol: The stability of MRTX1133 was determined by analyzing LQ, MQ, and HQ samples under different storage conditions, which included three freeze-thaw stability (from −20°C to 25°C), long-term stability (−80°C for 14 days), short-term stability (25°C for 6 h), and post-processing stability (4°C for 24 h). The samples concentrations were compared with the freshly prepared QC samples and were considered stable if the accuracy were 85%–115% and RSD were ±15%.
# [4] = Tissue distribution in rats after single intravenous administration; format: in vivo, Sprague-Dawley rats; conditions: rat, intravenous 5 mg/kg; for concentration at 2 h: after 2 h; for concentration at 6 h: after 6 h
# Protocol: as §1
# [5] = test system: tumor models, including pancreatic and colorectal cancer; design: method as in Kataoka et al., 2023; Drosten and Barbacid, 2022; conditions: multiple in vivo tumor models, ref Kataoka et al., 2023, Drosten and Barbacid, 2022; cited from earlier work
# [6] = rat intestine homogenate, 4.22 ng/mL
# [7] = rat intestine homogenate, 21.12 ng/mL
# [8] = rat kidney homogenate, 21.12 ng/mL
# [9] = rat kidney homogenate, 211.20 ng/mL
# [10] = rat kidney homogenate, 1,056.00 ng/mL
# [11] = rat liver homogenate, 21.12 ng/mL
# [12] = rat liver homogenate, 211.20 ng/mL
# [13] = rat liver homogenate, 2,112.00 ng/mL
structure (smiles),measurement,setting,value
C#Cc1c(F)ccc2cc(O)cc(-c3ncc4c(N5CC6CCC(C5)N6)nc(OC[C@@]56CCCN5C[C@H](F)C6)nc4c3F)c12 [MRTX1133],excretion through the kidney as prototype drug (urine),[1]; 6 h,10.43% ± 2.89%
same,"excretion through the kidney as prototype drug (urine), range",[1]; 6 h,6.53%–13.54%
same,excretion through the kidney as prototype drug (urine),"[1]; 24 h, 5 mg/kg",22.59% ± 3.22%
same,"excretion through the kidney as prototype drug (urine), range",[1]; 24 h,17.60%–25.92%
same,MRTX1133 in feces,[1]; feces 24 h,no MRTX1133 was found
same,plasma concentration,[2]; 4 h,"~1,000 ng mL^-1"
same,plasma concentration,[2]; 8 h,~100 ng/mL
same,plasma concentration,[2]; 24 h,approximately 50 ng mL^-1
same,Cmax,[2]; at 1 h,"approximately 7,000 ng mL^-1"
same,potency,KRAS (G12D),single digit nanomolar
same,selectivity for KRAS (G12D) compared with wild-type KRAS,KRAS (G12D),more than 1000 fold
same,stability in plasma samples and homogenates,"[3]; 25°C for 6 h, 4°C for 24 h, three freeze-thaw cycles (−20°C to 25°C), −80°C for 14 days",stable
same,Post-processing stability Accuracy,"[3]; rat intestine homogenate, 4.22 ng/mL, 4°C for 24 h",98.23%
same,Short-term stability Accuracy,"[3]; rat intestine homogenate, 4.22 ng/mL, 25°C for 6 h",95.41%
same,−80°C for 14 days Accuracy,[3]; [6],93.31%
same,Freeze-thaw stability Accuracy,[3]; [6],95.83%
same,Post-processing stability Accuracy,"[3]; rat intestine homogenate, 21.12 ng/mL, 4°C for 24 h",98.14%
same,Short-term stability Accuracy,"[3]; rat intestine homogenate, 21.12 ng/mL, 25°C for 6 h",96.69%
same,−80°C for 14 days Accuracy,[3]; [7],92.54%
same,Freeze-thaw stability Accuracy,[3]; [7],94.42%
same,Short-term stability Accuracy,"[3]; rat intestine homogenate, 105.60 ng/mL, 25°C for 6 h",94.97%
same,−80°C for 14 days Accuracy,"[3]; rat intestine homogenate, 105.60 ng/mL",90.35%
same,Post-processing stability Accuracy,"[3]; rat kidney homogenate, 21.12 ng/mL, 4°C for 24 h",101.18%
same,Short-term stability Accuracy,"[3]; rat kidney homogenate, 21.12 ng/mL, 25°C for 6 h",103.01%
same,−80°C for 14 days Accuracy,[3]; [8],95.23%
same,Freeze-thaw stability Accuracy,[3]; [8],95.07%
same,Post-processing stability Accuracy,"[3]; rat kidney homogenate, 211.20 ng/mL, 4°C for 24 h",98.13%
same,Short-term stability Accuracy,"[3]; rat kidney homogenate, 211.20 ng/mL, 25°C for 6 h",97.29%
same,−80°C for 14 days Accuracy,[3]; [9],92.7%
same,Freeze-thaw stability Accuracy,[3]; [9],95.58%
same,Post-processing stability Accuracy,"[3]; rat kidney homogenate, 1,056.00 ng/mL, 4°C for 24 h",95.47%
same,Short-term stability Accuracy,"[3]; rat kidney homogenate, 1,056.00 ng/mL, 25°C for 6 h",97.04%
same,−80°C for 14 days Accuracy,[3]; [10],91.34%
same,Freeze-thaw stability Accuracy,[3]; [10],93.72%
same,Post-processing stability Accuracy,"[3]; rat liver homogenate, 21.12 ng/mL, 4°C for 24 h",104.23%
same,Short-term stability Accuracy,"[3]; rat liver homogenate, 21.12 ng/mL, 25°C for 6 h",101.44%
same,−80°C for 14 days Accuracy,[3]; [11],96.4%
same,Freeze-thaw stability Accuracy,[3]; [11],97.72%
same,Post-processing stability Accuracy,"[3]; rat liver homogenate, 211.20 ng/mL, 4°C for 24 h",105.35%
same,Short-term stability Accuracy,"[3]; rat liver homogenate, 211.20 ng/mL, 25°C for 6 h",105.89%
same,−80°C for 14 days Accuracy,[3]; [12],94.88%
same,Freeze-thaw stability Accuracy,[3]; [12],96.69%
same,Post-processing stability Accuracy,"[3]; rat liver homogenate, 2,112.00 ng/mL, 4°C for 24 h",97.47%
same,Short-term stability Accuracy,"[3]; rat liver homogenate, 2,112.00 ng/mL, 25°C for 6 h",98.17%
same,−80°C for 14 days Accuracy,[3]; [13],93.33%
same,Freeze-thaw stability Accuracy,[3]; [13],92.38%
same,Post-processing stability Accuracy,"[3]; rat plasma, 4.22 ng/mL, 4°C for 24 h",107.16%
same,Short-term stability Accuracy,"[3]; rat plasma, 4.22 ng/mL, 25°C for 6 h",108.92%
same,−80°C for 14 days Accuracy,"[3]; rat plasma, 4.22 ng/mL",103.66%
same,Freeze-thaw stability Accuracy,"[3]; rat plasma, 4.22 ng/mL",101.64%
same,Post-processing stability Accuracy,"[3]; rat plasma, 105.60 ng/mL, 4°C for 24 h",94.98%
same,Short-term stability Accuracy,"[3]; rat plasma, 105.60 ng/mL, 25°C for 6 h",95.35%
same,−80°C for 14 days Accuracy,"[3]; rat plasma, 105.60 ng/mL",90.18%
same,Freeze-thaw stability Accuracy,"[3]; rat plasma, 105.60 ng/mL",92.05%
same,Post-processing stability Accuracy,"[3]; rat plasma, 1,056.00 ng/mL, 4°C for 24 h",92.05%
same,Short-term stability Accuracy,"[3]; rat plasma, 1,056.00 ng/mL, 25°C for 6 h",92.49%
same,−80°C for 14 days Accuracy,"[3]; rat plasma, 1,056.00 ng/mL",90.23%
same,Freeze-thaw stability Accuracy,"[3]; rat plasma, 1,056.00 ng/mL",90.04%
same,concentration at 2 h,"[4]; Sprague-Dawley, heart, n = 5, read-out: highest concentration in heart",879 ± 450 ng/g
same,concentration at 2 h,"[4]; Sprague-Dawley, kidney, n = 5, read-out: highest concentration in kidney",2580 ng/g
same,concentration at 1 h,"[4]; Sprague-Dawley, liver, at 1 h, n = 5, read-out: highest concentration in liver",5360 ng/g
same,concentration at 2 h,"[4]; Sprague-Dawley, lung, n = 5, read-out: highest concentration in lung",1230 ng/g
same,concentration at 6 h,"[4]; Sprague-Dawley, pancreas, n = 5, read-out: highest concentration in pancreas",156 ± 34.2 ng/g
same,concentration at 6 h,"[4]; Sprague-Dawley, spleen, n = 5, read-out: highest concentration in spleen",1860 ± 224 ng/g
same,detection in testis,[4],no MRTX1133
same,"concentration in liver, spleen, kidney and lung compared with plasma",[4]; 2 h after administration,higher than the concentration of the drug in plasma
same,detection in organs at 24 h,"[4]; liver, kidney, lung, spleen, heart, pancreas (except intestine), 24 h",still detectable
same,tissue distribution,"[4]; liver, kidney, lung, spleen, heart, pancreas, intestine",widely distributed
same,antitumor effect in vivo,[5],induces tumor regression
